# Source: patent US20210254272A1, “TEXTILES HAVING ANTIMICROBIAL PROPERTIES” (Livinguard AG, priority 2015, published 2021)
# Key:
# [1] = Leaching: 10 grams fabric in 100 milliliters distilled water, 7 days, GC-MS; type: physicochemical
# Method: To test for a potential leaching of the antimicrobial agents fixed to the textile material, the following test was performed. A test fabric of polyester 65%/cotton 35% with 210 g/m2 was treated with polyhexamethylenebiguanide (PHMB) 0.5%, silver chloride 0.075%, octadecylaminomethyl trihydroxysilylpropyl ammonium chloride (organosilane) 0.4%, and propiconazole 0.5%
# The treated textile material was put into distilled water at a ratio of 1:10. Specifically, a fabric of 10 grams was soaked in 100 milliliters of distilled water. The fabric was incubated in the water for 7 days at room temperature, i.e. between 21 and 25° C.
# Following said incubation time, the fabric was removed from the water and the exposed water was tested for the presence of the above five active ingredients using gas chromatography-mass spectrometry (GC-MS).
# E. coli (ATCC 25922) = experiment: AATCC Test Method 100-2012 antibacterial activity of the treated textile, after 25 washes and 12 abrasion cycles, contact time 60 minutes; type: cell-based; conditions: for Log reduction of antimicrobial performance: 1% o.w.f; for Log reduction of antimicrobial performance in 100 GSM Polyester fabric / Log reduction of antimicrobial performance in 100 GSM cotton fabric / Log reduction of antimicrobial performance in 300 GSM Polyester fabric / Log reduction of antimicrobial performance in 300 GSM cotton fabric / Performance Test-Log reduction of antimicrobial performance: 2 min; for Performance Test-Log reduction of antimicrobial performance: pad process, single agent 5 gm/lit
# Method: The antibacterial activity of the textile was tested in accordance with AATCC Test Method 100-2012. Prior to the test, the fabric was cut into coupons of 2×4 inches and washed separately 25 times, and exposed to 12 abrasion cycles, as per US EPA protocol 90072PA4 (described further below). The tests were made against E. coli (ATCC 25922). Contact time was 60 minutes, after inoculating with 10^8 CFU per coupon.
# [2] = exhaust 80° C., 60 min, curing 180° C., dosage 0.1% o.w.f
# [3] = exhaust 80° C., 60 min, curing 180° C., dosage 0.2% o.w.f
# [4] = exhaust 80° C., 60 min, curing 180° C., dosage 0.5% o.w.f
# [5] = exhaust 80° C., 60 min, curing 180° C., dosage 0.8% o.w.f
# [6] = exhaust 80° C., 60 min, curing 180° C., dosage 1.0% o.w.f
compound,measurement,setting,value
"CCCC1COC(Cn2cncn2)(c2ccc(Cl)cc2Cl)O1 (stereo not shown) [Propiconazole, propiconazole]","Extracted water Conc, ppm",[1],BDL (BDL-below detection limit Detection limit: 1 parts per million (ppm))
same,Log reduction of antimicrobial performance of each active ingredient,"E. coli (ATCC 25922); exhaust 60° C., solution dosage 1% o.w.f, process time 60 min",1.7 Log
same,Log reduction of antimicrobial performance of each active ingredient,"E. coli (ATCC 25922); exhaust 60° C., solution dosage 1% o.w.f, process time 90 min",1.8 Log
same,Log reduction of antimicrobial performance of each active ingredient,"E. coli (ATCC 25922); exhaust 60° C., solution dosage 1% o.w.f, process time 120 min",2.2 Log
same,Log reduction of antimicrobial performance of each active ingredient,"E. coli (ATCC 25922); exhaust 60° C., solution dosage 1% o.w.f, process time 180 min",2.3 Log
same,Log reduction of antimicrobial performance of each active ingredient,"E. coli (ATCC 25922); exhaust 60° C., solution dosage 1% o.w.f, process time 240 min",2.11 Log
same,Log reduction of antimicrobial performance,"E. coli (ATCC 25922); exhaust 80° C., 60 min, curing 170° C., curing dwell time 0.5 min",0.3 Log
same,Log reduction of antimicrobial performance,"E. coli (ATCC 25922); exhaust 80° C., 60 min, curing 170° C., curing dwell time 1.0 min",0.6 Log
same,Log reduction of antimicrobial performance,"E. coli (ATCC 25922); exhaust 80° C., 60 min, curing 170° C., curing dwell time 1.5 min",0.8 Log
same,Log reduction of antimicrobial performance,"E. coli (ATCC 25922); exhaust 80° C., 60 min, curing 170° C., curing dwell time 2.0 min",1.3 Log
same,Log reduction of antimicrobial performance,"E. coli (ATCC 25922); exhaust 80° C., 60 min, curing 170° C., curing dwell time 2.5 min",1.1 Log
same,Log reduction of antimicrobial performance,"E. coli (ATCC 25922); exhaust 80° C., 60 min, curing 170° C., curing dwell time 3.0 min",0.67 Log
same,Log reduction of antimicrobial performance,"E. coli (ATCC 25922); exhaust 80° C., 60 min, curing 180° C., curing dwell time 0.5 min",1.7 Log
same,Log reduction of antimicrobial performance,"E. coli (ATCC 25922); exhaust 80° C., 60 min, curing 180° C., curing dwell time 1.0 min",1.8 Log
same,Log reduction of antimicrobial performance,"E. coli (ATCC 25922); exhaust 80° C., 60 min, curing 180° C., curing dwell time 1.5 min",2.2 Log
same,Log reduction of antimicrobial performance,"E. coli (ATCC 25922); exhaust 80° C., 60 min, curing 180° C., curing dwell time 2.0 min",3.8 Log
same,Log reduction of antimicrobial performance,"E. coli (ATCC 25922); exhaust 80° C., 60 min, curing 180° C., curing dwell time 2.5 min",3.5 Log
same,Log reduction of antimicrobial performance,"E. coli (ATCC 25922); exhaust 80° C., 60 min, curing 180° C., curing dwell time 3.0 min",3.4 Log
same,Log reduction of antimicrobial performance,"E. coli (ATCC 25922); exhaust 80° C., 60 min, curing 190° C., curing dwell time 0.5 min",0.3 Log
same,Log reduction of antimicrobial performance,"E. coli (ATCC 25922); exhaust 80° C., 60 min, curing 190° C., curing dwell time 1.0 min",0.8 Log
same,Log reduction of antimicrobial performance,"E. coli (ATCC 25922); exhaust 80° C., 60 min, curing 190° C., curing dwell time 1.5 min",2.2 Log
same,Log reduction of antimicrobial performance,"E. coli (ATCC 25922); exhaust 80° C., 60 min, curing 190° C., curing dwell time 2.0 min",2.88 Log
same,Log reduction of antimicrobial performance,"E. coli (ATCC 25922); exhaust 80° C., 60 min, curing 190° C., curing dwell time 2.5 min",2.34 Log
same,Log reduction of antimicrobial performance,"E. coli (ATCC 25922); exhaust 80° C., 60 min, curing 190° C., curing dwell time 3.0 min",1.1 Log
same,Log reduction of antimicrobial performance,"E. coli (ATCC 25922); exhaust 80° C., 60 min, curing temperature 100 ° C.",0.21 Log
same,Log reduction of antimicrobial performance,"E. coli (ATCC 25922); exhaust 80° C., 60 min, curing temperature 120 ° C.",0.45 Log
same,Log reduction of antimicrobial performance,"E. coli (ATCC 25922); exhaust 80° C., 60 min, curing temperature 140 ° C.",0.98 Log
same,Log reduction of antimicrobial performance,"E. coli (ATCC 25922); exhaust 80° C., 60 min, curing temperature 160 ° C.",1.23 Log
same,Log reduction of antimicrobial performance,"E. coli (ATCC 25922); exhaust 80° C., 60 min, curing temperature 165 ° C.",1.28 Log
same,Log reduction of antimicrobial performance,"E. coli (ATCC 25922); exhaust 80° C., 60 min, curing temperature 170 ° C.",1.45 Log
same,Log reduction of antimicrobial performance,"E. coli (ATCC 25922); exhaust 80° C., 60 min, curing temperature 175 ° C.",2.32 Log
same,Log reduction of antimicrobial performance,"E. coli (ATCC 25922); exhaust 80° C., 60 min, curing temperature 180 ° C.",2.87 Log
same,Log reduction of antimicrobial performance,"E. coli (ATCC 25922); exhaust 80° C., 60 min, curing temperature 185 ° C.",2.88 Log
same,Log reduction of antimicrobial performance,"E. coli (ATCC 25922); exhaust 80° C., 60 min, curing temperature 190 ° C.",2.91 Log
same,Log reduction of antimicrobial performance,"E. coli (ATCC 25922); exhaust 80° C., 60 min, curing temperature 195 ° C.",2.93 Log
same,Log reduction of antimicrobial performance in 100 GSM Polyester fabric,E. coli (ATCC 25922); [2],0.59 Log
same,Log reduction of antimicrobial performance in 100 GSM cotton fabric,E. coli (ATCC 25922); [2],0.63 Log
same,Log reduction of antimicrobial performance in 300 GSM Polyester fabric,E. coli (ATCC 25922); [2],0.58 Log
same,Log reduction of antimicrobial performance in 300 GSM cotton fabric,E. coli (ATCC 25922); [2],0.64 Log
same,Log reduction of antimicrobial performance in 100 GSM Polyester fabric,E. coli (ATCC 25922); [3],1.35 Log
same,Log reduction of antimicrobial performance in 100 GSM cotton fabric,E. coli (ATCC 25922); [3],1.45 Log
same,Log reduction of antimicrobial performance in 300 GSM Polyester fabric,E. coli (ATCC 25922); [3],1.37 Log
same,Log reduction of antimicrobial performance in 300 GSM cotton fabric,E. coli (ATCC 25922); [3],1.45 Log
same,Log reduction of antimicrobial performance in 100 GSM Polyester fabric,E. coli (ATCC 25922); [4],1.71 Log
same,Log reduction of antimicrobial performance in 100 GSM cotton fabric,E. coli (ATCC 25922); [4],1.95 Log
same,Log reduction of antimicrobial performance in 300 GSM Polyester fabric,E. coli (ATCC 25922); [4],1.73 Log
same,Log reduction of antimicrobial performance in 300 GSM cotton fabric,E. coli (ATCC 25922); [4],1.95 Log
same,Log reduction of antimicrobial performance in 100 GSM Polyester fabric,E. coli (ATCC 25922); [5],2.14 Log
same,Log reduction of antimicrobial performance in 100 GSM cotton fabric,E. coli (ATCC 25922); [5],2.34 Log
same,Log reduction of antimicrobial performance in 300 GSM Polyester fabric,E. coli (ATCC 25922); [5],2.50 Log
same,Log reduction of antimicrobial performance in 300 GSM cotton fabric,E. coli (ATCC 25922); [5],2.34 Log
same,Log reduction of antimicrobial performance in 100 GSM Polyester fabric,E. coli (ATCC 25922); [6],2.75 Log
same,Log reduction of antimicrobial performance in 100 GSM cotton fabric,E. coli (ATCC 25922); [6],2.85 Log
same,Log reduction of antimicrobial performance in 300 GSM Polyester fabric,E. coli (ATCC 25922); [6],2.74 Log
same,Log reduction of antimicrobial performance in 300 GSM cotton fabric,E. coli (ATCC 25922); [6],2.88 Log
same,Log reduction of antimicrobial performance of each active ingredient,"E. coli (ATCC 25922); exhaust 80° C., 60 min, dosage 1% o.w.f (test up to 5% o.w.f)",2.56 Log
same,Log reduction of antimicrobial performance of each active ingredient,"E. coli (ATCC 25922); exhaust 80° C., 60 min, dosage 2% o.w.f",2.57 Log
same,Log reduction of antimicrobial performance of each active ingredient,"E. coli (ATCC 25922); exhaust 80° C., 60 min, dosage 3% o.w.f",2.58 Log
same,Log reduction of antimicrobial performance of each active ingredient,"E. coli (ATCC 25922); exhaust 80° C., 60 min, dosage 4% o.w.f",2.61 Log
same,Log reduction of antimicrobial performance of each active ingredient,"E. coli (ATCC 25922); exhaust 80° C., 60 min, dosage 5% o.w.f",2.63 Log
same,Log reduction of antimicrobial performance of each active ingredient,"E. coli (ATCC 25922); exhaust 80 ° C., solution dosage 1% o.w.f, process time 10 min",0.83 Log
same,Log reduction of antimicrobial performance of each active ingredient,"E. coli (ATCC 25922); exhaust 80 ° C., solution dosage 1% o.w.f, process time 20 min",0.99 Log
same,Log reduction of antimicrobial performance of each active ingredient,"E. coli (ATCC 25922); exhaust 80 ° C., solution dosage 1% o.w.f, process time 30 min",1.23 Log
same,Log reduction of antimicrobial performance of each active ingredient,"E. coli (ATCC 25922); exhaust 80 ° C., solution dosage 1% o.w.f, process time 40 min",1.67 Log
same,Log reduction of antimicrobial performance of each active ingredient,"E. coli (ATCC 25922); exhaust 80 ° C., solution dosage 1% o.w.f, process time 50 min",2.56 Log
same,Log reduction of antimicrobial performance of each active ingredient,"E. coli (ATCC 25922); exhaust 80 ° C., solution dosage 1% o.w.f, process time 60 min",2.87 Log
same,Log reduction of antimicrobial performance of each active ingredient,"E. coli (ATCC 25922); exhaust 80 ° C., solution dosage 1% o.w.f, process time 70 min",2.89 Log
same,Log reduction of antimicrobial performance of each active ingredient,"E. coli (ATCC 25922); exhaust 80 ° C., solution dosage 1% o.w.f, process time 80 min",2.93 Log
same,Log reduction of antimicrobial performance of each active ingredient,"E. coli (ATCC 25922); exhaust 80 ° C., solution dosage 1% o.w.f, process time 90 min",2.94 Log
same,Performance Test-Log reduction of antimicrobial performance,E. coli (ATCC 25922); curing 120° C.,0.04 Log
same,Performance Test-Log reduction of antimicrobial performance,E. coli (ATCC 25922); curing 140° C.,0.14 Log
same,Performance Test-Log reduction of antimicrobial performance,E. coli (ATCC 25922); curing 150° C.,0.22 Log
same,Performance Test-Log reduction of antimicrobial performance,E. coli (ATCC 25922); curing 160° C.,0.49 Log
